Columns and labels:
guinea pig skin [1] = assay: Cumulative skin irritancy test of a retinoid on guinea pig skin; assay type: in vivo
Description: (§1) Histological tests were conducted to study the irritancy of a retinoid on guinea pig skin and correlation between an irritancy threshold and a retinoid action threshold. Each of male guinea pigs of approximately in a weight of 600 g was applied once every day with 1, 5, 10, 50, or 100 ppm of retinoic acid (RA) or Am80 (4-[(5,6,7,8-tetrahydro-5,5,8,8-tetramethyl-2-naphthalenyl)carbamoyl]benzoic acid) as an ethanol solution on the dorsal skin (5 days a week). As a control, only the solvent (ethanol) was applied. The skin responses were evaluated according to the following 5-step criteria, and average values were calculated for each concentration of the drugs by using results obtained from three of the guinea pigs. • 0: No skin response was observed. • 1: Slight erythema was observed. • 2: Obvious erythema was observed. • 3: Strong erythema or slight edema/crust was observed. • 4: Obvious edema/crust, or more severe changes was observed.
(§2) Further, concentration dependencies of cumulative skin irritancy of RA and Am80 for the same application period were compared.

fibroblast cells = assay: Acceleration of EGF-dependent growth of fibroblast cells; assay type: cell-based; details: low serum level
Description: The growth of fibroblast cells, being suspended under a low serum level, is dependent on growth factors, and the growth will start by the addition of EGF. The acceleration effects of RA and Am80 on the EGF-dependent growth were evaluated. RA gave the maximum effect (40% promotion) at 10^−6 M, and Am80 gave the maximum effect (30% promotion) at 10^−8 M. The acceleration effect of Am80 (10%) was also observed at 10^−10 Ml.

[2] = test system: Normal human keratinocyte; assay: Human keratinocyte growth (amount of DNA as index); assay type: cell-based; details: amount of DNA as index of HK growth
Description: (§3) Normal human keratinocyte obtained from human chest skin (HK, Kurabo) was cultured, and the cells were added with RA or Am80 (0.01% in dimethyl sulfoxide) on the second day. The cells on the second to 13th day after the addition of the agents were used as samples. By using the amount of DNA as an index of HK growth, and by using compositional ratio (K1/K16) of differentiated keratin (k1; 68 kD) and proliferating keratin (K16; 48 kD) in one-dimension SDS-PAGE as an index of differentiation, differentiation suppression rate was determined as a value wherein the ratio of the indexes of each sample and control applied only with a solvent was subtracted from 1. […] IC50 was 10^−6 to 10^−7 M for RA, and 10^−9 M for Am80.

guinea pig skin [3] = assay: Histological findings of guinea pig skin at the end of the application period; assay type: in vivo
Description: as §1, §2

horny layer = assay: Horny layer turnover test (dansylchloride fluorescence); assay type: in vivo, guinea pig; details: 50 ppm, 10 μl/1 cm diameter, once a day (FIG. 3)
Description: Actions on turnover of horny layer were evaluated by using guinea pigs. Hartley albino male guinea pigs of approximately 750 g in weight, whose hair was removed using depilatory wax three days prior to the experiment, were applied occlusively with 5% Vaseline ointment of dansylchloride for 24 hours using a patch test Finn Chamber, and then the skin of the guinea pigs were wiped to remove the ointment. A portable fluorometer was used for irradiation with ultraviolet rays having maximum at around 338 nm, and the fluorescent intensity of the dansylchloride was measured. Simultaneously, fluorescent intensity of an area where dansylchloride was not applied (blank value) was measured in the same manner. After the measurement of the fluorescent intensities, 10 μl/1 cm diameter of RA and Am80 at 50 ppm concentration were applied once a day. During the measurement, skin irritancy was also determined according to the criteria indicated in Example 1. […] Cumulative skin irritancy was simultaneously evaluated according to the criteria in Example 1, and the results were obtained as shown in FIG. 4.

skin grooves = assay: Planarization action on skin surface formation (skin groove), silicon resin replicas and image analysis; assay type: in vivo, hairless mice; details: 0.01% in ethanol
Description: Changes which appear on skin grooves after applications of RA and Am80 (each at a concentration of 0.01% in ethanol) were studied by using hairless mice (Skh-h4l, 16 weeks old, female, 5 mice per group). The applications were conducted once a day, 5 days a week, and for 30 days. As a control, only ethanol was applied. On the next day of the day of last application, replicas of skin surfaces were created by using a silicon resin, and various parameters that represent features of the shape of the skin surface were determined by using an apparatus for image analysis. […] Further, the decrease in KSD correlated to epidermal thickening.

[4] = test system: Normal human keratinocyte; assay: Human keratinocyte differentiation (K1/K16 keratin ratio, SDS-PAGE); assay type: cell-based
Description: as §3

[5] = reported in WO96/30009; cited from earlier work

## CC1=C(/C=C/C(C)=C/C=C/C(C)=C/C(=O)O)C(C)(C)CCC1 [RA, retinoic acid, reference compound]
Guinea pig skin [1]; same application period, FIG. 2 (9th day of application)
  irritancy threshold (cumulative skin irritancy): less than 5 ppm
Fibroblast cells; Fibroblast, at 10^−6 M, read-out: maximum effect on EGF-dependent growth (promotion)
  Emax at 1 µM: 40%
[2]
  IC50 of cell growth suppression: 10^−6 to 10^−7 M

## CC1(C)CCC(C)(C)c2cc(NC(=O)c3ccc(C(=O)O)cc3)ccc21 [Am80, 4-[(5,6,7,8-tetrahydro-5,5,8,8-tetramethyl-2-naphthalenyl)carbamoyl]benzoic acid]
Guinea pig skin [1]; 10 ppm or less, during this period (FIG. 2)
  skin responses: no skin responses
Guinea pig skin [1]; RA and Am80 at the same concentration (FIG. 1)
  skin response compared with retinoic acid: much weaker skin response than retinoic acid and induces extremely slow skin response
Guinea pig skin [3]
  skin thickening and inflammatory changes compared with RA: more slight skin thickening and inflammatory changes even when applied at 10 times higher concentration
Horny layer
  action on horny cell layer turnover: almost no effect
Skin grooves; for 30 days (FIG. 6)
  epidermal thickening: obvious changes
Skin grooves; once a day, 5 days a week, for 30 days
  planarization changes of skin surface on replicas: The same action was observed
Fibroblast cells; Fibroblast, at 10^−8 M, read-out: maximum effect on EGF-dependent growth (promotion)
  Emax at 0.01 µM: 30%
Fibroblast cells; at 10^−10 Ml
  acceleration effect on EGF-dependent growth: 10%
[2]; Homo sapiens, Keratinocyte, read-out: IC50 of cell growth suppression
  IC50: 1 nM
[4]; Am80 versus RA
  differentiation suppression rates as compared to that by RA: 1.3 to 1.7 times
[4]; K1/K16 ratio as index of differentiation
  cell differentiation suppression action compared with RA: stronger than that of RA
[4]; as low as
  concentration at which cell differentiation suppression action is also observed: 10^−8 to 10^−10 M
[5]
  effect on dermatopathy caused by rays of sunlight: ineffective

Source: patent US8030360B2, “Anti-wrinkle agent” (Kemphys Ltd., priority 2004, dated 2011)
